The subject of one data set is enlarged skin pores. The conditions noted are these: 0.1% gel on face twice a day, after a month.
In the next data set the test system is oily skin. The conditions noted are these: 1% solution on face twice a day, after a month.
For another data set, the system named is acne. The conditions noted are these: 0.5% cream on face twice a day, after three months.
In a further data set the test system is sebum production. The conditions noted are these: for reduction in sebum production (as assessed by the Sebotape): 2% memantine lotion twice daily on back skin, vs pre-treatment or control region; for health of the skin in treatment region: 2% memantine lotion twice daily.

Where two headings read alike, the source gives them in different places.

Regarding `CNC1(C)C2CCC(C2)C1(C)C` (stereo not shown) [mecamylamine], in the data set with enlarged skin pores, the “appearance of skin pores” value is reported as “smaller in diameter” and the “visible unwanted side-effects regarding skin” value is listed as “no other visible unwanted side-effects”.
Regarding `OC(CCN1CCCCC1)(c1ccccc1)C1CC2C=CC1C2` (stereo not shown) [biperiden], in the data set on oily skin, the “appearance of skin oiliness” value is listed as “much less oily” and the “visible unwanted side-effects regarding skin” value is “no other visible unwanted side-effects”.
In the case of `CC12CC3CC(C)(C1)CC(N)(C3)C2` [memantine], in the data set with acne, the appearance of acne entry is on record as “less visible” and the “visible unwanted side-effects regarding skin” value is “no other visible unwanted side-effects”. For the same compound, in the data set with sebum production (after five days), the “reduction in sebum production (as assessed by the Sebotape)” value is listed as more than 50% and the “health of the skin in treatment region” value was “healthy skin”. Further, in the data set with sebum production (after six days), the “reduction in sebum production (as assessed by the Sebotape)” value is more than 50% and the “health of the skin in treatment region” value is “healthy skin”.

(Values after US9649266B2 (priority 2014, dated 2017).)
